Experimental data: PubChem BioAssay (NCI)
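Where inhibition never reached the appropriate level, the endpoint shown equals the highest concentration tested. Otherwise, values were interpolated linearly from a five-concentration, 48-hour dose response in 96-well plates. TGI denotes the concentration required for complete inhibition of growth.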

Legend:
Experiment in all cases: growth of human tumour cells (NCI), 48 h
786-0 renal = test system: 786-0 renal
A498 renal = test system: A498 renal
A549 NSCLC = test system: A549 NSCLC
ACHN renal = test system: ACHN renal
BT-549 breast = test system: BT-549 breast
CAKI-1 renal = test system: CAKI-1 renal
CCRF-CEM leukemia = test system: CCRF-CEM leukemia
COLO 205 colon = test system: COLO 205 colon
DU-145 prostate = test system: DU-145 prostate
EKVX NSCLC = test system: EKVX NSCLC
HCC-2998 colon = test system: HCC-2998 colon
HCT-116 colon = test system: HCT-116 colon
HCT-15 colon = test system: HCT-15 colon
HOP-62 NSCLC = test system: HOP-62 NSCLC
HOP-92 NSCLC = test system: HOP-92 NSCLC
HS 578T breast = test system: HS 578T breast
HT29 colon = test system: HT29 colon
IGROV1 ovarian = test system: IGROV1 ovarian
K-562 leukemia = test system: K-562 leukemia
KM12 colon = test system: KM12 colon
M14 melanoma = test system: M14 melanoma
MALME-3M melanoma = test system: MALME-3M melanoma
MCF7 breast = test system: MCF7 breast
MDA-MB-231 breast = test system: MDA-MB-231 breast
MDA-MB-435 = test system: MDA-MB-435
MDA-N = test system: MDA-N
MOLT-4 leukemia = test system: MOLT-4 leukemia
NCI-H23 lung = test system: NCI-H23 lung
NCI-H460 lung = test system: NCI-H460 lung
NCI-H522 lung = test system: NCI-H522 lung
NCI/ADR-RES ovarian = test system: NCI/ADR-RES ovarian
OVCAR-3 ovarian = test system: OVCAR-3 ovarian
OVCAR-4 ovarian = test system: OVCAR-4 ovarian
OVCAR-5 ovarian = test system: OVCAR-5 ovarian
OVCAR-8 ovarian = test system: OVCAR-8 ovarian
PC-3 prostate = test system: PC-3 prostate
RPMI-8226 leukemia = test system: RPMI-8226 leukemia
RXF 393 renal = test system: RXF 393 renal
SF-295 CNS = test system: SF-295 CNS
SK-MEL-2 melanoma = test system: SK-MEL-2 melanoma
SK-MEL-28 melanoma = test system: SK-MEL-28 melanoma
SK-MEL-5 melanoma = test system: SK-MEL-5 melanoma
SK-OV-3 ovarian = test system: SK-OV-3 ovarian
SNB-19 CNS = test system: SNB-19 CNS
SR leukemia = test system: SR leukemia
SW-620 colon = test system: SW-620 colon
U251 CNS = test system: U251 CNS
UACC-257 melanoma = test system: UACC-257 melanoma
UACC-62 melanoma = test system: UACC-62 melanoma
UO-31 renal = test system: UO-31 renal
HL-60(TB) leukemia = test system: HL-60(TB) leukemia
LOX IMVI melanoma = test system: LOX IMVI melanoma
SF-268 CNS = test system: SF-268 CNS
SF-539 CNS = test system: SF-539 CNS
SN12C renal = test system: SN12C renal
T-47D breast = test system: T-47D breast
TK-10 renal = test system: TK-10 renal
NCI-H226 lung = test system: NCI-H226 lung
SNB-75 CNS = test system: SNB-75 CNS

Structure (SMILES): c1ccc(C(=NCCC2CNc3ccccc32)c2ccccc2)cc1 (stereo not given)
- TGI (786-0 renal): > 100 µM
- TGI (A498 renal): > 100 µM
- TGI (A549 NSCLC): > 100 µM
- TGI (ACHN renal): > 100 µM
- TGI (BT-549 breast): > 100 µM
- TGI (CAKI-1 renal): > 100 µM
- TGI (CCRF-CEM leukemia): > 100 µM
- TGI (COLO 205 colon): > 100 µM
- TGI (DU-145 prostate): > 100 µM
- TGI (EKVX NSCLC): > 100 µM
- TGI (HCC-2998 colon): > 100 µM
- TGI (HCT-116 colon): > 100 µM
- TGI (HCT-15 colon): > 100 µM
- TGI (HOP-62 NSCLC): > 100 µM
- TGI (HOP-92 NSCLC): > 100 µM
- TGI (HS 578T breast): > 100 µM
- TGI (HT29 colon): > 100 µM
- TGI (IGROV1 ovarian): > 100 µM
- TGI (K-562 leukemia): > 100 µM
- TGI (KM12 colon): > 100 µM
- TGI (M14 melanoma): > 100 µM
- TGI (MALME-3M melanoma): > 100 µM
- TGI (MCF7 breast): > 100 µM
- TGI (MDA-MB-231 breast): > 100 µM
- TGI (MDA-MB-435): > 100 µM
- TGI (MDA-N): > 100 µM
- TGI (MOLT-4 leukemia): > 100 µM
- TGI (NCI-H23 lung): > 100 µM
- TGI (NCI-H460 lung): > 100 µM
- TGI (NCI-H522 lung): > 100 µM
- TGI (NCI/ADR-RES ovarian): > 100 µM
- TGI (OVCAR-3 ovarian): > 100 µM
- TGI (OVCAR-4 ovarian): > 100 µM
- TGI (OVCAR-5 ovarian): > 100 µM
- TGI (OVCAR-8 ovarian): > 100 µM
- TGI (PC-3 prostate): > 100 µM
- TGI (RPMI-8226 leukemia): > 100 µM
- TGI (RXF 393 renal): > 100 µM
- TGI (SF-295 CNS): > 100 µM
- TGI (SK-MEL-2 melanoma): > 100 µM
- TGI (SK-MEL-28 melanoma): > 100 µM
- TGI (SK-MEL-5 melanoma): > 100 µM
- TGI (SK-OV-3 ovarian): > 100 µM
- TGI (SNB-19 CNS): > 100 µM
- TGI (SR leukemia): > 100 µM
- TGI (SW-620 colon): > 100 µM
- TGI (U251 CNS): > 100 µM
- TGI (UACC-257 melanoma): > 100 µM
- TGI (UACC-62 melanoma): > 100 µM
- TGI (UO-31 renal): > 100 µM

Structure (SMILES): CCOC(=O)c1c(C)n(C)c2c1cc(O)c1[nH]c3c(c12)CCCC3
- TGI (786-0 renal): 42.3 µM
- TGI (A549 NSCLC): 58.7 µM
- TGI (ACHN renal): > 100 µM
- TGI (BT-549 breast): > 100 µM
- TGI (CAKI-1 renal): > 100 µM
- TGI (CCRF-CEM leukemia): 43.6 µM
- TGI (COLO 205 colon): 23.5 µM
- TGI (DU-145 prostate): > 100 µM
- TGI (EKVX NSCLC): 45.1 µM
- TGI (HCT-116 colon): 50.3 µM
- TGI (HCT-15 colon): > 100 µM
- TGI (HL-60(TB) leukemia): 46.7 µM
- TGI (HOP-62 NSCLC): > 100 µM
- TGI (HOP-92 NSCLC): 16.8 µM
- TGI (HS 578T breast): 87.4 µM
- TGI (HT29 colon): 49.4 µM
- TGI (IGROV1 ovarian): 37.2 µM
- TGI (K-562 leukemia): 40.3 µM
- TGI (KM12 colon): 37.3 µM
- TGI (LOX IMVI melanoma): 29.7 µM
- TGI (M14 melanoma): 29.2 µM
- TGI (MALME-3M melanoma): 31.7 µM
- TGI (MCF7 breast): 19.4 µM
- TGI (MDA-MB-231 breast): 43.9 µM
- TGI (MDA-MB-435): 29.6 µM
- TGI (MDA-N): 34.3 µM
- TGI (MOLT-4 leukemia): 45.6 µM
- TGI (NCI-H23 lung): 52.7 µM
- TGI (NCI-H460 lung): 42.9 µM
- TGI (NCI-H522 lung): 28.7 µM
- TGI (NCI/ADR-RES ovarian): 54 µM
- TGI (OVCAR-3 ovarian): 25.1 µM
- TGI (OVCAR-4 ovarian): 23.5 µM
- TGI (OVCAR-5 ovarian): 65.1 µM
- TGI (OVCAR-8 ovarian): 66.3 µM
- TGI (PC-3 prostate): 46.6 µM
- TGI (RPMI-8226 leukemia): 18.7 µM
- TGI (SF-268 CNS): 21.8 µM
- TGI (SF-295 CNS): > 100 µM
- TGI (SF-539 CNS): 37.9 µM
- TGI (SK-MEL-2 melanoma): 37 µM
- TGI (SK-MEL-28 melanoma): 32.8 µM
- TGI (SK-MEL-5 melanoma): 25.6 µM
- TGI (SK-OV-3 ovarian): > 100 µM
- TGI (SN12C renal): 61.3 µM
- TGI (SNB-19 CNS): > 100 µM
- TGI (SW-620 colon): 44.1 µM
- TGI (T-47D breast): 48.4 µM
- TGI (TK-10 renal): 60.9 µM
- TGI (U251 CNS): 36.8 µM
- TGI (UACC-257 melanoma): 31.7 µM
- TGI (UACC-62 melanoma): 35.8 µM
- TGI (UO-31 renal): 69.9 µM

Structure (SMILES): C=C1C(=O)OC2C3C(=C)[C@@H](OC(C)=O)CC3C(C)=CC(OC(=O)C(C)(OC(C)=O)C(C)OC(C)=O)[C@@H]12 (stereo not given in full)
- TGI (786-0 renal): 33.5 µM
- TGI (A549 NSCLC): 70.4 µM
- TGI (ACHN renal): 27 µM
- TGI (BT-549 breast): 33 µM
- TGI (CAKI-1 renal): 23.2 µM
- TGI (CCRF-CEM leukemia): 12.3 µM
- TGI (COLO 205 colon): 28.2 µM
- TGI (DU-145 prostate): 30.5 µM
- TGI (EKVX NSCLC): 30.9 µM
- TGI (HCC-2998 colon): 33.2 µM
- TGI (HCT-116 colon): 23.8 µM
- TGI (HCT-15 colon): 25.7 µM
- TGI (HL-60(TB) leukemia): 6.54 µM
- TGI (HOP-62 NSCLC): > 100 µM
- TGI (HS 578T breast): > 100 µM
- TGI (HT29 colon): 27.5 µM
- TGI (IGROV1 ovarian): 37.7 µM
- TGI (K-562 leukemia): 32.6 µM
- TGI (KM12 colon): 33.4 µM
- TGI (LOX IMVI melanoma): 27.3 µM
- TGI (M14 melanoma): 27.8 µM
- TGI (MALME-3M melanoma): 26.5 µM
- TGI (MCF7 breast): 24.1 µM
- TGI (MDA-MB-231 breast): 32.7 µM
- TGI (MDA-MB-435): 31.2 µM
- TGI (MDA-N): 30.1 µM
- TGI (MOLT-4 leukemia): 52.2 µM
- TGI (NCI-H226 lung): 51.8 µM
- TGI (NCI-H23 lung): 38.3 µM
- TGI (NCI-H460 lung): 60.4 µM
- TGI (NCI-H522 lung): 11.4 µM
- TGI (OVCAR-3 ovarian): 26.7 µM
- TGI (OVCAR-4 ovarian): 32.2 µM
- TGI (OVCAR-5 ovarian): 42.6 µM
- TGI (OVCAR-8 ovarian): > 100 µM
- TGI (PC-3 prostate): 32.4 µM
- TGI (RPMI-8226 leukemia): 38.5 µM
- TGI (RXF 393 renal): 31.7 µM
- TGI (SF-268 CNS): 51.1 µM
- TGI (SF-295 CNS): > 100 µM
- TGI (SF-539 CNS): 33.5 µM
- TGI (SK-MEL-2 melanoma): 27.4 µM
- TGI (SK-MEL-28 melanoma): 29 µM
- TGI (SK-MEL-5 melanoma): 25.3 µM
- TGI (SK-OV-3 ovarian): > 100 µM
- TGI (SN12C renal): 29.5 µM
- TGI (SNB-19 CNS): > 100 µM
- TGI (SNB-75 CNS): 37.1 µM
- TGI (SR leukemia): > 100 µM
- TGI (SW-620 colon): 21.9 µM
- TGI (T-47D breast): 40.5 µM
- TGI (TK-10 renal): 27.9 µM
- TGI (U251 CNS): 30.8 µM
- TGI (UACC-257 melanoma): 32.1 µM
- TGI (UACC-62 melanoma): 27.2 µM
- TGI (UO-31 renal): 30.8 µM

Structure (SMILES): CN(C)c1ccc(/C=C2\N=C(N/N=C/c3ccccc3O)NC2=O)cc1
- TGI (A498 renal): 61.7 µM
- TGI (BT-549 breast): > 100 µM
- TGI (COLO 205 colon): > 100 µM
- TGI (DU-145 prostate): > 100 µM
- TGI (HCC-2998 colon): > 100 µM
- TGI (HOP-62 NSCLC): 53 µM
- TGI (HOP-92 NSCLC): 59.7 µM
- TGI (HS 578T breast): > 100 µM
- TGI (HT29 colon): > 100 µM
- TGI (MDA-MB-435): > 100 µM
- TGI (MDA-N): > 100 µM
- TGI (NCI-H226 lung): 41.1 µM
- TGI (OVCAR-5 ovarian): > 100 µM
- TGI (RPMI-8226 leukemia): > 100 µM
- TGI (RXF 393 renal): 55.9 µM
- TGI (SF-268 CNS): > 100 µM
- TGI (SK-MEL-28 melanoma): 62.7 µM
- TGI (SN12C renal): > 100 µM
- TGI (SNB-19 CNS): > 100 µM
- TGI (SNB-75 CNS): 89.7 µM
- TGI (TK-10 renal): 59.4 µM
